Reference: publication PMC10125328 (ACS Bio & Med Chem Au, 2023)
Where “and” joins values, the source holds several entries; their conditions need not be identical. Equal entries are not always repeated. Where two headings read alike, the source gives them in different places.

How the values were obtained:
Ftu-1 β-lactamase [1] = molecular target: T1, Ftu-1 β-lactamase (Francisella tularensis, UniProt Q5NH60); assay: biochemical
Ftu-1 β-lactamase [2] = molecular target: T1, Ftu-1 β-lactamase; details: cited from earlier work
Ftu-1 β-lactamase [3] = molecular target: T1, Ftu-1 β-lactamase; type: biochemical

T1 sequence (Q5NH60 1-287): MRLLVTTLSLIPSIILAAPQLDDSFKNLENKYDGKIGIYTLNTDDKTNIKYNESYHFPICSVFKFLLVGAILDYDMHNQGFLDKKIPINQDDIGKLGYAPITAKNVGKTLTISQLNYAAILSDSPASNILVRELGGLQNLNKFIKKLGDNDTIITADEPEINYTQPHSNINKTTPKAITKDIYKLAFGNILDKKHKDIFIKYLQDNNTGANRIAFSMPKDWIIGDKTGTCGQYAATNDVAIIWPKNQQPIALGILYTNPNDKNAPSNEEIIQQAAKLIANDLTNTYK

CC1(C)[C@H](C(=O)O)N2C(=O)C[C@H]2S1(=O)=O [sulbactam]
Ki (Ftu-1 β-lactamase [1]): 21.1 µM

CO[C@@]1(NC(=O)Cc2cccs2)C(=O)N2C(C(=O)O)=C(COC(N)=O)CS[C@@H]21 [cefoxitin]
hydrolysis in the presence of Ftu-1 (Ftu-1 β-lactamase [2]): unhydrolyzed

O=C(O)[C@H]1/C(=C/CO)O[C@@H]2CC(=O)N21 [clavulanic acid]
Ki (Ftu-1 β-lactamase [1]): 30.7 µM

CO/N=C(\C(=O)N[C@@H]1C(=O)N2C(C(=O)O)=C(COC(N)=O)CS[C@H]12)c1ccco1 [cefuroxime]
Km (Ftu-1 β-lactamase [2]): 14 ± 2 µM

C[C@]1(Cn2ccnn2)[C@H](C(=O)O)N2C(=O)C[C@H]2S1(=O)=O [tazobactam]
Ki (Ftu-1 β-lactamase [1]): 1.19 µM and 1.2 µM

C[C@@H](O)[C@H]1C(=O)N2C(C(=O)O)=C(SCCN=CN)C[C@H]12 [imipenem]
Ki (Ftu-1 β-lactamase [1]): 73.8 µM
Km (Ftu-1 β-lactamase [2]): 31 ± 4 µM
kcat (Ftu-1 β-lactamase [2]): 0.017 ± 0.001 S^–1

CC(C)(O/N=C(\C(=O)N[C@@H]1C(=O)N2C(C(=O)[O-])=C(C[n+]3ccccc3)CS[C@H]12)c1csc(N)n1)C(=O)O [ceftazidime]
kcat (Ftu-1 β-lactamase [2]): 0.022 ± 0.001 S^–1

C[C@@H](O)[C@H]1C(=O)N2C(C(=O)O)=C(S[C@@H]3CN[C@H](C(=O)N(C)C)C3)[C@H](C)[C@H]12 [meropenem]
Ki (Ftu-1 β-lactamase [1]): 1.53 µM

C[C@H]1[C@H](NC(=O)/C(=N\OC(C)(C)C(=O)O)c2csc(N)n2)C(=O)N1S(=O)(=O)O [aztreonam]
hydrolysis in the presence of Ftu-1 (Ftu-1 β-lactamase [2]): unhydrolyzed

O=C(Cc1cccs1)N[C@@H]1C(=O)N2C(C(=O)O)=C(CSc3ccc([N+](=O)[O-])c(C(=O)O)c3)CS[C@H]12 [CENTA]
Km (Ftu-1 β-lactamase [3]; pH 4.8): 655 ± 37.1 µM
Vmax (Ftu-1 β-lactamase [3]; pH 4.8): 1.001 ± 0.005 µM/min
kcat (Ftu-1 β-lactamase [3]; pH 4.8): 101 ± 1 min^–1
Vmax (Ftu-1 β-lactamase [3]; pH 5.8): 13.12 ± 0.62 µM/min
kcat (Ftu-1 β-lactamase [3]; pH 5.8): 1312.75 ± 62.75 min^–1
Vmax (Ftu-1 β-lactamase [3]; pH 6.4): 24.8 ± 0.9 µM/min
Vmax (Ftu-1 β-lactamase [3]; pH 7.2): 30.5 ± 0.5 µM/min
Km (Ftu-1 β-lactamase [3]; pH 7.6): 128 ± 57 µM
Vmax (Ftu-1 β-lactamase [3]; pH 7.6): 49.51 ± 15.84 µM/min
kcat (Ftu-1 β-lactamase [3]; pH 7.6): 4951.67 ± 1583 min^–1
Km (Ftu-1 β-lactamase [3]; pH 8.5): 228 ± 11.1 µM
kcat (Ftu-1 β-lactamase [3]; pH 9.5): 38.96 ± 11.2 min^–1
Km (Ftu-1 β-lactamase [3]; pH 10.5): 218 ± 30.8 µM
kcat (Ftu-1 β-lactamase [3]; pH 10.5): 8.85 ± 0.15 min^–1
